This is an account of results in PubChem BioAssay AID493092 (Sanford-Burnham Center for Chemical Genomics, 2011).

Active and inactive are the calls of the source.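 Rule for the calls: active = averaged IC50 for reducing per-cell lipid droplet stain intensity under a set limit; inactive = the rest.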

One may read the IC50 as the concentration at which inhibition is half-maximal.

The experiment deals with AML12 mouse hepatocytes, BODIPY lipid droplet imaging. As to the kind of experiment: lipid droplet accumulation inhibition in liver cells – imaging, AML12 mouse hepatocytes, BODIPY staining, SAR follow-up (AID 493092). The note with it: cells fed 100 µM oleate overnight.
Consider `COc1ccc(CCNC(=O)Nc2ccccc2C(F)(F)F)cc1OC`, for which the IC50 was > 32000 nM (inactive). The value for `CCCc1cc(N2CCOCC2)n2nc(C)c(-c3ccccc3)c2n1` was 168 nM. As to `CCOc1ccc(CCNC(=O)CSc2cc(=O)n(C)c3cc(Cl)ccc23)cc1OCC`, the IC50 is > 32000 nM (inactive). The value for `CCOc1ccc(CCNC(=O)CCOc2cc(C)ccc2C)cc1OCC` was 102 nM; that for `CCOc1ccc(CCNC(=O)CCC(=O)N2CCSc3ccccc32)cc1OCC` was 81.7 nM.

As for `Cc1cc(N2CCOCC2)n2nc(C(F)(F)F)c(-c3ccc(Cl)cc3)c2n1`, the IC50 is 113 nM. Then `O=C(CNC(=O)c1cccc(Br)c1)NCCCc1ccccc1`, with > 32000 nM (inactive); and `CCc1ccccc1NC(=O)CCC(=O)Nc1cc(OC)c(NC(=O)c2cccs2)cc1OC`, with 538 nM; and `CCOc1ccc(CCNC(=O)CSc2cc(=O)n(CC)c3ccccc23)cc1OCC`, with 1260 nM.

Take `COc1ccc(C(=O)OCC(=O)NC(C)CCc2ccccc2)cc1OC` (stereo unspecified): the IC50 was 8730 nM (inactive). The value for `CCOc1ccc(C(=O)NCC(=O)NC(C)CCc2ccccc2)cc1OCC` (stereo unspecified) was 688 nM. Then `CCc1ccc(NC(=O)CCC(=O)Nc2cc(OC)c(NC(=O)c3cccs3)cc2OC)cc1`, with 336 nM; and `COc1ccc(NC(=O)CCC(=O)Nc2cc(OC)c(NC(=O)c3cccs3)cc2OC)cc1`, with 635 nM; and `COc1ccccc1NC(=O)C1CCN(C(=O)NCc2ccccc2)CC1`, with 3230 nM. The value for `CCOc1ccc(CN(C)C(=O)CNC(=O)c2ccc(Br)o2)cc1OC` was 1830 nM; that for `CC(OC(=O)c1ccc(F)cc1)C(=O)Nc1nc(-c2cccc([N+](=O)[O-])c2)cs1` (stereo unspecified) was > 32000 nM (inactive). Turning to `CCOc1ccc(CCNC(=O)Nc2ccccc2C)cc1OCC`, the IC50 was 826 nM. The value for `CCOc1ccc(CCNC(=O)CCC(=O)N2CCOc3ccccc32)cc1OCC` was 161 nM; that for `COc1ccc(CN(C)C(=O)CNC(=O)Cc2cccc3ccccc23)c(OC)c1` was 2990 nM; that for `Cc1nn2c(N3CCOCC3)cc(C(C)(C)C)nc2c1-c1ccc(Cl)cc1` was > 32000 nM (inactive). Then `CC(OC(=O)c1ccc2c(c1)OCO2)C(=O)Nc1nc(-c2cccc([N+](=O)[O-])c2)cs1` (stereo unspecified), with > 32000 nM (inactive); and `CCOc1ccc(CCNC(=O)CCc2nc(-c3ccc(OC)cc3)no2)cc1OCC`, with 302 nM. The value for `COc1ccc(CCNC(=O)Nc2ccc(C(C)=O)cc2)cc1OC` was > 32000 nM (inactive); that for `O=C(CSCC(=O)N1CCCc2ccccc21)Nc1nc(-c2ccccc2)cs1` was 11800 nM (inactive). Turning to `CCOc1ccccc1NC(=O)CCC(=O)Nc1ccccc1OCC`, the IC50 was 1540 nM.

For `Cc1ccc(C(=O)OC(C)C(=O)Nc2nc(-c3cccc([N+](=O)[O-])c3)cs2)cc1` (stereo unspecified), the IC50 is 17000 nM (inactive). On to `CC(C)Oc1ccc(C(=O)OC(C)C(=O)Nc2nc(-c3cccc([N+](=O)[O-])c3)cs2)cc1` (stereo unspecified), for which the concentration for half-maximal inhibition (IC50) was 106 nM.

Consider `COc1cc(OC)cc(C(=O)NCC(=O)NC(C)CCc2ccccc2)c1` (stereo unspecified), for which the IC50 is > 32000 nM (inactive). For the molecule `COc1cc(NC(=O)c2cccs2)c(OC)cc1NC(=O)CCC(=O)Nc1cc(C)cc(C)c1`, the IC50 was 87 nM.

For the molecule `Cc1cc(C(=O)OC(C)C(=O)Nc2nc(-c3ccccc3)cs2)c(C)o1` (stereo unspecified), the IC50 is 428 nM. The value for `CC(Sc1nnc(Nc2ccccc2)s1)C(=O)Nc1nc(-c2ccccc2)cs1` (stereo unspecified) was 3680 nM; that for `CCOc1ccc(CN(C)C(=O)CNC(=O)c2ccc3ccccc3c2)cc1OC` was 402 nM; that for `CCOc1ccc(C(=O)OCC(=O)Nc2nc(OC)cc(OC)n2)cc1OCC` was 591 nM.

As to `O=C(Cc1cccc2ccccc12)NCC(=O)N1CCc2ccccc2C1`, the IC50 is > 32000 nM (inactive). In the case of `CCCc1cc(N2CCOCC2)n2ncc(-c3ccccc3)c2n1`, the IC50 was 2500 nM.

As to `Cc1ccc(-c2cnn3c(N4CCOCC4)cc(C)nc23)cc1`, the IC50 was 10600 nM (inactive). The value for `COc1cc(NC(=O)c2cccs2)c(OC)cc1NC(=O)CCC(=O)Nc1c(C)cccc1C` was 2200 nM.

For the molecule `CC(OC(=O)c1ccc(S(=O)(=O)C(F)F)cc1)C(=O)Nc1nc(-c2ccccc2)cs1` (stereo unspecified), the IC50 is > 32000 nM (inactive). The value for `COc1ccc(C(=O)OCC(=O)NC(C)CCc2ccccc2)c(OC)c1` (stereo unspecified) was 1010 nM. The value for `CCOc1ccc(CCNC(=O)CN2CCN(Cc3ccccc3C)C2=O)cc1OCC` was 555 nM; that for `COc1cccc(CN(C)C(=O)CNC(=O)Cc2cccc3ccccc23)c1OC` was > 32000 nM (inactive). The value for `O=C(Nc1nc(-c2ccc(-c3ccccc3)cc2)cs1)C1CCCO1` (stereo unspecified) was 1100 nM. For `COc1ccc(C)cc1CN(C)C(=O)C(C)NC(=O)Cc1cccc2ccccc12` (stereo unspecified), the concentration for half-maximal inhibition (IC50) is 1050 nM. Then `CCOc1ccc(CCNC(=O)CCc2nnc3ccc(N4CCCC4)nn23)cc1OCC`, with 922 nM. Turning to `CC(OC(=O)c1ccc(O)cc1)C(=O)Nc1nc(-c2ccccc2)cs1` (stereo unspecified), the IC50 is > 32000 nM (inactive). Then `CN(Cc1ccc2c(c1)OCO2)C(=O)CNC(=O)Cc1cccc2ccccc12`, with > 32000 nM (inactive); and `COc1ccc(CCNC(=O)Nc2ccccc2Cl)cc1OC`, with > 32000 nM (inactive). Take `COc1ccc(-c2csc(NC(=O)c3ccc(OCC(=O)N4CCOCC4)c(OC)c3)n2)cc1`: the IC50 was 475 nM. Then `CCOc1ccc(CCNC(=O)CCc2nnc3ccc(N4CCCCC4)nn23)cc1OCC`, with 366 nM; and `CCOc1ccc(C(=O)OCC(=O)Nc2cc(C)on2)cc1OCC`, with 864 nM; and `CCOc1cc2c(cc1OCC)C(c1ccccc1)N(c1ccccc1)C(=O)C2` (stereo unspecified), with 287 nM. The value for `CCCc1cc(N2CCCC2)n2nc(C)c(-c3ccccc3)c2n1` was 700 nM; that for `CCOc1cc(CNC(=O)CCCn2c(=O)c3cccn3c3cccnc32)cc(OCC)c1OCC` was 220 nM; that for `CCOc1ccccc1C(=O)NCC(=O)NCCCc1ccccc1` was > 32000 nM (inactive). The value for `CCOc1ccc(CCNC(=O)COC(=O)c2cc(OC)c(OC)c(OC)c2)cc1OCC` was 103 nM; that for `O=C(NCc1ccc2c(c1)OCO2)c1cc(-c2ccccc2)c(N2CCOCC2)s1` was 412 nM. As to `CC(OC(=O)c1cccc([N+](=O)[O-])c1)C(=O)Nc1nc(-c2ccccc2)cs1` (stereo unspecified), the IC50 was > 32000 nM (inactive).

Take `CC1CCCN(C(=O)c2ccc3c(c2NCCO)C(=O)c2ccccc2C3=O)C1` (stereo unspecified): the IC50 was 2250 nM. Then `CCOc1ccc(CCNC(=O)Cn2nc(C)c3c(C)n(-c4ccccc4)nc3c2=O)cc1OCC`, with 336 nM. Then `CCOC(=O)c1cc(CC)sc1NC(=O)C1CC(=O)NN1Cc1ccccc1` (stereo unspecified), with 338 nM.

Turning to `Cc1cc(N2CCOCC2)n2nc(C)c(-c3ccc(Cl)cc3)c2n1`, the 50% inhibitory concentration (IC50) is 158 nM. Then `CCOc1ccc(CCNC(=O)Nc2cccc(OC)c2)cc1OCC`, with 134 nM; and `CC(=O)Nc1ccc(-c2csc(NC(=O)Cc3cccc(F)c3)n2)cc1`, with 2710 nM; and `CCOc1ccc(CCNC(=O)c2cc3sc(Cl)cc3n2C)cc1OCC`, with 92.2 nM.

On to `CCOc1ccc(CCNC(=O)C2CC=CCC2C(=O)OC(C)C)cc1OCC` (stereo unspecified), for which the concentration for half-maximal inhibition (IC50) was 267 nM. `Cc1ccc(-n2nc3c(=O)n(CC(=O)NC(C)CCc4ccccc4)nc(C)c3c2C)cc1` (stereo unspecified): the IC50 was 413 nM.

As to `COc1ccc(CNC(=O)CN2C(=O)NC(C)(c3cccc4ccccc34)C2=O)cc1OC` (stereo unspecified), the IC50 was 1170 nM.

In the case of `Cc1cc(N2CCOCC2)n2ncc(-c3ccc(F)cc3)c2n1`, the 50% inhibitory concentration (IC50) is 2120 nM. Then `COc1ccc(CCNC(=O)Nc2ccccc2C#N)cc1OC`, with > 32000 nM (inactive); and `Cc1nn2c(N3CCOCC3)c3c(nc2c1-c1ccccc1)CCC3`, with 21600 nM (inactive); and `COc1cc2c(cc1OC)CN(C(=O)CNC(=O)Cc1cccc3ccccc13)CC2`, with 469 nM.

Turning to `CCN(CC)S(=O)(=O)c1ccc(C(=O)NCC(=O)NCCCc2ccccc2)cc1`, the IC50 is > 32000 nM (inactive). Then `Cc1cc(C)n(-c2ccc(C(=O)OC(C)C(=O)Nc3nc(-c4ccccc4)cs3)cc2)n1` (stereo unspecified), with > 32000 nM (inactive). Then `CCOc1ccc(CCNC(=O)Nc2ccccc2)cc1OCC`, with 257 nM; and `COc1cc(NC(=O)c2cccs2)c(OC)cc1NC(=O)CCC(=O)Nc1cccc2ncccc12`, with 4500 nM. Turning to `CCOc1ccc(CCNC(=O)CN2C(=O)c3cccnc3Oc3ccc(C)cc32)cc1OCC`, the IC50 was 170 nM. Then `CCOc1ccc(CCNC(=O)CSc2cc(=O)n(C)c3ccccc23)cc1OCC`, with 496 nM. Then `COc1ccc(CN(C)C(=O)CNC(=O)Cc2cccc3ccccc23)c(OC)c1OC`, with 2350 nM. The value for `COc1ccc(CCNC(=O)Nc2ccc(F)cc2F)cc1OC` was > 32000 nM (inactive); that for `CCOc1ccccc1NC(=O)CCCNC(=O)Cn1cnc2sc(C)c(C)c2c1=O` was 8670 nM (inactive); that for `Cc1ccc(-c2c(C)nn3c(N4CCOCC4)cc(C)nc23)cc1` was 246 nM. On to `CC1CC(C)CN(C(=O)c2ccc3c(c2NCCO)C(=O)c2ccccc2C3=O)C1` (stereo unspecified), for which the IC50 was 782 nM. Regarding `CCOc1ccc(C(C)NC(=O)Cc2ccccc2F)cc1OCC` (stereo unspecified), the half-inhibitory concentration (IC50) was 840 nM. Then `CCOc1cc2c(cc1OCC)CN(C(=O)CNC(=O)c1ccc3ccccc3c1)CC2`, with 311 nM; and `COc1ccc(C(=O)OC(C)C(=O)Nc2cc(C(F)(F)F)ccc2Cl)c(OC)c1OC` (stereo unspecified), with 439 nM. The value for `CCOc1ccc(NC(=O)CCC(=O)Nc2cc(OC)c(NC(=O)c3cccs3)cc2OC)cc1` was 276 nM; that for `COc1ccc(CCNC(=O)Nc2cc(F)c(F)cc2Cl)cc1OC` was > 32000 nM (inactive); that for `CCOc1ccc(CCNC(=O)Cn2ncn3nc(-c4ccc(OC)cc4)cc3c2=O)cc1OCC` was 121 nM. The value for `CC(OC(=O)c1ccc(O)cc1)C(=O)Nc1nc(-c2cccc([N+](=O)[O-])c2)cs1` (stereo unspecified) was > 32000 nM (inactive); that for `COc1ccc(Br)cc1CN(C)C(=O)CNC(=O)Cc1cccc2ccccc12` was 2080 nM. `COc1cccc(NC(=O)CCC(=O)Nc2cc(OC)c(NC(=O)c3cccs3)cc2OC)c1`: the IC50 was 197 nM.
